Measured values published in article PMC4778918, “Signal Transduction at the Domain Interface of Prokaryotic Pentameric Ligand-Gated Ion Channels” (PLoS Biology, 2016).

Key:
ELIC WT = ELIC WT (Dickeya chrysanthemi, UniProt P0C7B7, INS163G); experiment: biochemical; assay type: binding, Erwinia chrisanthemi; conditions: ITC, ELIC WT in detergent (UDM), 4°C, single-site isotherm; read-out: effective dissociation constant (Keff)
ELIC T28D = ELIC T28D (Dickeya chrysanthemi, UniProt P0C7B7, INS163G/T28D); experiment: biochemical; assay type: binding, Erwinia chrisanthemi; conditions: read-out: Keff

SMILES: CC(=O)OCC[N+](C)(C)C [acetylcholine]
- Kd (ELIC WT): 2500 µM
- Kd (ELIC T28D): 2000 µM
